Data set [1] has as its system P. aeruginosa PA14. Description: Antibiotic susceptibility (MIC assay, broth microdilution). It is filed as cell-based, Pseudomonas aeruginosa PA14. As for the experimental part:
Bacterial strains were streaked on LB-agar plates (1% agar) from glycerol stocks and incubated at 37° C. overnight. Colonies were picked from plate and dispersed in fresh MiGler-Hinton broth II (MHB II) to yield an OD600 of 0.08-0.13. This dispersion was diluted 1:100 in fresh MHB II, which was then used for the assay to achieve a final inoculum of 5×10^5 CFU/mL. 50 μL inoculum was mixed with 50 μL of the serial dilution in the corresponding well of the 96-well plate.
The different matrices were prepared under sterile conditions: (i) 5 mL human plasma and 1 mL sterile filtrate from an P. aeruginosa PA14 overnight culture in LB were mixed with 4 mL PBS; (ii) 1 mL sterile filtrate from an P. aeruginosa PA14 overnight culture was diluted in 9 mL PBS; (iii) PBS only and (iv) 5 mL human plasma and 1 mL LB were mixed with 4 mL PBS. 6 L of each compound dilution series was diluted in 115 L matrix (˜-1:20 dilution) in a 96-well format at time point T=−3 h or T=−10 min.
The plates prepared at T=−3 h were sealed with gas-permeable foil and incubated at 37° C. in a humid incubator. The other plates were kept at room temperature. At T=0 h, 50 µL of each well was mixed with 50 μL incoculum (as described above) in double-concentrated MHBII in a sterile 96-well plate.
The plates were sealed with gas-permeable foil and incubated at 37° C. for 18-20 h in a humid incubator. Growth inhibition was assessed by visual inspection and given MIC values are the lowest concentration of antibiotic at which there was no visible growth.

Data set [2] can be described thus: Microsomal stability assay, human S9 liver microsomes. The following applies: for metabolic stability t1/2 HLM: human S9 liver fractions; for CLmic S9human: microsomal clearance, calculated from t1/2. It is filed as in vitro ADME. As for the experimental part: (§1) S9 liver microsomes (mouse and human, Thermo Fisher) were thawed slowly on ice. 20 mg/ml of microsomes, 2 μl of a 100 μM solution of every compound and 183 μl of 100 mM phosphate buffer were incubated 5 min at 37° C. in a water bath. Reactions were initiated using 10 μl of 20 mM NADPH (Roth). Samples were incubated in three replicates at 37° C. under gentle agitation at 150 rpm.
(§2) At 0, 5, 15, 30, and 60 min, reactions were terminated by the addition of 180 μl acetonitrile using a Mantis Formulatrix® dispenser. Samples were vortexed for 5 min using an Eppendorf MixMate® vortex mixer and centrifuged at 2270 ref for 20 min at 4° C. The supernatants were transferred to 96-well Greiner V-bottom plates, sealed and analysed according to the section HPLC-MS/MS analysis. Peak areas of the respective time point of the compounds were normalized to the peak area at time point 0 min. Then half-life was calculated using linear regression (Microsoft Excel®). Clint [μl/min/mg protein] was calculated using the following formula: […]
(§3) Cell samples as well as plasma stability, plasma protein binding and metabolic stability samples were analysed using an Agilent 1290 Infinity II coupled to an AB Sciex 6500plus mass spec-trometer. LC conditions were as follows: column: Agilent Zorbax Eclipse Plus C18, 50×2.1 mm, 1.8 m; temperature: 30° C.; injection volume: 5 l per sample; flow rate: 700 l/min. Solvents: A: water+0.1% formic acid; solvent B: 95% acetonitrile/5% H2O+0.1% formic acid. Gradient for 2, 36 and 37: 99% A from 0 min until 1 min; 99-0% A from 1.0 until 2.2 min, 0% A until 3.2 min. Gradient for naproxene: 99% A from 0 min until 1 min; 99-0% A from 1.0 until 5.5 min, 0% A until 6.0 min. Gradient for […] and […]: 99% A from 0 min until 1.0 min, 99-0% A from 1.0 until 3.5 min, 0% A until 3.7 min. Mass transitions for controls and compounds are depicted in table 5.

Data set [3] in a line: Stability of conjugates in human blood plasma spiked with LB. It is filed as in vitro ADME. The following applies: 50% human blood plasma spiked with 10% LB, within three hours. As for the experimental part: A 1 mM solution of the studied compound was prepared in PBS (150 mM NaCl, 2.6 mM KCl, 1.4 mM KH2PO4, 10 mM Na2HPO4, pH 7.4) with 20% DMSO. 50 μL of this solution was diluted in 950 μL matrix or human plasma (spiked with 10% LB) on ice. After brief vortex, 100 μL were immediately treated with 100 μL ice-cold MeCN (spiked with […] diphenhydramine as internal standard). The rest of the solution was incubated at 37° C. and 500 rpm in an eppendorf thermomixer. At various time points (30, 60, 120, 180 min), 100 L sample were taken and treated as described above. […] The AUC of the parent drug and its cleavage products and the internal standard was quantified using Compass QuantAnalysis quantification software. The relative AUC was calculated by AUC (compound)/AUC(ISTD). Procaine was used as a positive control as it readily degrades in human plasma.

Data set [4] can be described thus: Plasma protein binding assay (RED), human plasma. It is filed as in vitro ADME. The settings on record: human blood plasma. As for the experimental part: (§4) Plasma protein binding was assessed using the rapid equilibrium device (RED) system from ThermoFisher. […] Dialysis buffer and plasma samples were added to the respective chambers according the manufacturer's protocol. The RED plate was sealed with a tape and incubated at 37° C. for 2 hours at 800 rpm on an Eppendorf MixMate® vortex-mixer. Then samples were withdrawn from the respective chambers. To 25 μl of each dialysis sample, 25 μl of plasma and to 25 μl of plasma sample, 25 l of dialysis buffer was added. […] Samples were incubated for 30 min on ice. Then samples were centrifuged at 4° C. at 2270 ref for 10 min. Supernatants were transferred to Greiner V-bottom 96-well plates and sealed with a tape. Then samples were subjected to HPLC-MS/MS analysis as described in the section ‘HPLC-MS/MS analysis’. The percentage of bound compound was calculated as follows: […]
(§5) Cell samples as well as plasma stability, plasma protein binding and metabolic stability samples were analysed using an Agilent 1290 Infinity II coupled to an AB Sciex 6500plus mass spec-trometer. LC conditions were as follows: column: Agilent Zorbax Eclipse Plus C18, 50×2.1 mm, 1.8 m; temperature: 30° C.; injection volume: 5 l per sample; flow rate: 700 l/min. Solvents: A: water+0.1% formic acid; solvent B: 95% acetonitrile/5% H2O+0.1% formic acid. […]

Data set [5] is described as follows: Plasma protein binding assay (RED), murine plasma. The settings on record: mouse blood plasma. It is filed as in vitro ADME. Here is the method:
as §4, §5

Data set [6] is described as follows: Microsomal stability assay, mouse S9 liver microsomes. The following applies: for CLmic S9mouse: microsomal clearance, calculated from t1/2; for metabolic stability t1/2 MLM: mouse S9 liver fractions. It is filed as in vitro ADME. As for the experimental part: as §1, §2, §3
The mark [7] stands for this setting: Matrix 1: PBS, pre-incubation 3 h.
The mark [8] stands for this setting: Matrix 1: PBS, pre-incubation <10 min.
The mark [9] stands for this setting: Matrix 2: 50% human blood plasma + 10% P. aeruginosa culture supernatant in PBS, pre-incubation 3 h.
Where [10] appears, read: Matrix 2: 50% human blood plasma + 10% P. aeruginosa culture supernatant in PBS, pre-incubation <10 min.
Setting [11] is: Matrix 3: 10% P. aeruginosa culture supernatant in PBS, pre-incubation 3 h.
The mark [12] stands for this setting: Matrix 3: 10% P. aeruginosa culture supernatant in PBS, pre-incubation <10 min.
[13] abbreviates: Matrix 4: 50% human blood plasma + 10% LB in PBS, pre-incubation 3 h.
Where [14] appears, read: Matrix 4: 50% human blood plasma + 10% LB in PBS, pre-incubation <10 min.

Values joined by “and” are separate entries in the source; they are usually repeats but may differ in a detail not shown here. Equal values may be shown once.

Consider `CC(C)C[C@H](NC(=O)CNC(=O)[C@H](C)NC(=O)c1ccc(S[C@@H]2O[C@H](CO)[C@H](O)[C@H](O)[C@H]2O)cc1)C(=O)N[C@@H](C)C(=O)N[C@H]1CCN(c2cc3c(cc2F)c(=O)c(C(=O)O)cn3C2CC2)C1` [Compound 36], for which the MIC in data set [1] (setting [7]) was more than 25 µM; in data set [1] (setting [8]), more than 25 µM; in data set [1] (setting [9]), 0.1 µM; in data set [1] (setting [10]), 0.195 to 0.39 µM; in data set [1] (setting [11]), 0.195 to 3.13 µM; in data set [1] (setting [12]), 0.78 to 3.13 µM. In addition, the MIC in data set [1] (setting [13]) is 0.78 to 6.25 µM; in data set [1] (setting [14]), not below 25 µM. In addition, the “metabolic stability t1/2 HLM” value in data set [2] was determined as 1.55 h. Also, in data set [2], the “CLmic S9human” value is on record as 15 μL/min/mg protein. The “release of antibiotic cargo” value in data set [3] is reported as “no significant release of their antibiotic cargo”. Also, the “plasma protein binding human” value in data set [4] was 97% and 97.2 ± 4.8%. Moreover, in data set [5], the “plasma protein binding mouse” value was 74%. Also, in data set [6], the “CLmic S9mouse” value is 14 μL/min/mg protein. In data set [6], the “metabolic stability t1/2 MLM” value came to 1.67 h.

As for `CC(C)CC(NC(=O)CNC(=O)C(C)NC(=O)c1ccc(S(=O)(=O)NCC2OC(C)C(O)C(O)C2O)cc1)C(=O)NC(C)C(=O)NC1CCN(c2cc3c(cc2F)c(=O)c(C(=O)O)cn3C2CC2)C1` (stereo not drawn) [Compound 37], the MIC was more than 25 µM in data set [1] (setting [7]); more than 25 µM in data set [1] (setting [8]); 0.1 to 0.195 µM in data set [1] (setting [9]); 0.78 to 1.56 µM in data set [1] (setting [10]); 0.39 to 3.13 µM in data set [1] (setting [11]); 1.56 to 12.5 µM in data set [1] (setting [12]). The MIC was 0.78 to 6.25 µM in data set [1] (setting [13]) and not below 25 µM in data set [1] (setting [14]). The “metabolic stability t1/2 HLM” value in data set [2] came to 2.97 h. In addition, the “CLmic S9human” value in data set [2] was 7.8 μL/min/mg protein. In data set [3], the “release of antibiotic cargo” value is given as “no significant release of their antibiotic cargo”. Moreover, the “plasma protein binding human” value in data set [4] is 51% and 51.1 ± 13.3%. Further, the “plasma protein binding mouse” value in data set [5] was 30% and 30.1 ± 9.2%. In addition, in data set [6], the “CLmic S9mouse” value is reported as 6.4 μL/min/mg protein. Also, the “metabolic stability t1/2 MLM” value in data set [6] came out at 3.6 h.

The record behind these values is patent US20250295790A1, “LECTIN-TARGETING CONJUGATES” (Helmholtz-Zentrum für Infektionsforschung GmbH, priority 2021, published 2025).
